Blank lines part the entries; values can stand above or below the compound they belong to.
Assays:
[1] = test system: mice bearing LNCaP tumor xenografts; assay: PET/CT imaging of 68Ga-labeled compounds; assay type: in vivo; conditions: for blood retention (qualitative): PET/CT images at 1 h and 3 h post-injection, comparison within the figure
Experimental: 2.17 PET/CT Imaging and Biodistribution
(§1) Imaging and biodistribution experiments were performed using NODSCID 1L2RyKO male mice. Mice were anesthetized by inhalation with 2% isoflurane in oxygen, and implanted subcutaneously with 1×10^7 LNCaP cells behind left shoulder. Mice were imaged or used in biodistribution studies when the tumor grew up to reach 5-8 mm in diameter during 5-6 weeks.
PET imaging experiments were conducted using Siemens Inveon micro PET/CT scanner. Each tumor bearing mouse was injected 6-8 MBq of 68Ga-labeled tracer through the tail vein under anesthesia (2% isoflurane in oxygen). The mice were allowed to recover and roam freely in their cage. After 50 min, the mice were sedated again with 2% isoflurane in oxygen inhalation and positioned in the scanner. A 10-min CT scan was conducted first for localization and attenuation correction after segmentation for reconstructing the PET images. Then, a 10-min static PET imaging was performed to determined uptake in tumor and other organs. The mice were kept warm by a heating pad during acquisition. For imaging studies acquired at 3 h post-injection (p.i.), the mice were placed in the micro PET/CT scanner at 170 min p.i. Then, the CT acquisitions were conducted as described above, a 15-min static PET imaging was performed to determined uptake in tumor and other organs.

[2] = test system: mice bearing PSMA-expressing LNCAP cancer xenografts; assay: Biodistribution of 68Ga-labeled compounds; assay type: in vivo
Experimental: as §1
For biodistribution studies, the mice were injected with the radiotracer as described above. At predetermined time points (1 or 3 h), the mice was anesthetized with 2% isoflurane inhalation, and euthanized by CO2 inhalation. Blood was withdrawn immediately from the heart, and the organs/tissues of interest were collected. The collected organs/tissues were weighed and counted using an automatic gamma counter. The uptake in each organ/tissue was normalized to the injected dose using a standard curve, and expressed as the percentage of the injected dose per gram of tissue (% ID/g).

- change of tumor uptake from 1 h to 3 h post-injection ([1]; PET/CT images): uptake in tumors increases over time
- blood retention (qualitative) [1]: some extent of blood retention
- Adrenal glands uptake ([2]; 1 h post-injection): 3.78 ± 0.46 % ID/g
- Blood uptake ([2]; 1 h post-injection): 4.68 ± 1.09 % ID/g
- Bone uptake ([2]; 1 h post-injection): 0.76 ± 0.14 % ID/g
- Brain uptake ([2]; 1 h post-injection): 0.10 ± 0.03 % ID/g
- Fat uptake ([2]; 1 h post-injection): 0.87 ± 0.53 % ID/g
- Heart uptake ([2]; 1 h post-injection): 1.29 ± 0.34 % ID/g
- Intestine uptake ([2]; 1 h post-injection): 0.60 ± 0.14 % ID/g
- Kidneys uptake ([2]; 1 h post-injection): 123 ± 30.4 % ID/g
- Lacrimal uptake ([2]; 1 h post-injection): 1.35 ± 0.43 % ID/g
- Liver uptake ([2]; 1 h post-injection): 1.02 ± 0.34 % ID/g
- Lungs uptake ([2]; 1 h post-injection): 3.28 ± 0.85 % ID/g
- Muscle uptake ([2]; 1 h post-injection): 0.53 ± 0.11 % ID/g
- Pancreas uptake ([2]; 1 h post-injection): 0.85 ± 0.15 % ID/g
- Salivary uptake ([2]; 1 h post-injection): 3.34 ± 0.89 % ID/g
- Seminal uptake ([2]; 1 h post-injection): 0.74 ± 0.39 % ID/g
- Spleen uptake ([2]; 1 h post-injection): 3.92 ± 0.88 % ID/g
- Stomach uptake ([2]; 1 h post-injection): 0.27 ± 0.10 % ID/g
- Tail uptake ([2]; 1 h post-injection): 1.43 ± 0.34 % ID/g
- Testes uptake ([2]; 1 h post-injection): 0.98 ± 0.22 % ID/g
- Thyroid uptake ([2]; 1 h post-injection): 1.49 ± 0.44 % ID/g
- Tumor uptake ([2]; 1 h post-injection): 25.9 ± 3.21 % ID/g
- Tumor:Blood ratio ([2]; 1 h post-injection): 5.67 ± 0.97
- Tumor:Muscle ratio ([2]; 1 h post-injection): 49.7 ± 5.98
- Tumor:kidney ratio ([2]; 1 h post-injection): 0.22 ± 0.04
- Urine uptake ([2]; 1 h post-injection): 203 ± 88.0 % ID/g
- Adrenal glands uptake ([2]; 3 h post-injection): 3.95 ± 2.28 % ID/g
- Blood uptake ([2]; 3 h post-injection): 1.17 ± 0.36 % ID/g
- Bone uptake ([2]; 3 h post-injection): 1.93 ± 1.51 % ID/g
- Brain uptake ([2]; 3 h post-injection): 0.12 ± 0.05 % ID/g
- Fat uptake ([2]; 3 h post-injection): 0.58 ± 0.13 % ID/g
- Heart uptake ([2]; 3 h post-injection): 0.59 ± 0.26 % ID/g
- Intestine uptake ([2]; 3 h post-injection): 0.34 ± 0.04 % ID/g
- Kidneys uptake ([2]; 3 h post-injection): 31.1 ± 15.2 % ID/g
- Lacrimal uptake ([2]; 3 h post-injection): 3.01 ± 1.26 % ID/g
- Liver uptake ([2]; 3 h post-injection): 0.43 ± 0.08 % ID/g
- Lungs uptake ([2]; 3 h post-injection): 1.39 ± 0.53 % ID/g
- Muscle uptake ([2]; 3 h post-injection): 0.46 ± 0.30 % ID/g
- Pancreas uptake ([2]; 3 h post-injection): 0.41 ± 0.09 % ID/g
- Salivary uptake ([2]; 3 h post-injection): 2.06 ± 1.16 % ID/g
- Seminal uptake ([2]; 3 h post-injection): 0.29 ± 0.08 % ID/g
- Spleen uptake ([2]; 3 h post-injection): 2.10 ± 1.16 % ID/g
- Stomach uptake ([2]; 3 h post-injection): 0.14 ± 0.03 % ID/g
- Tail uptake ([2]; 3 h post-injection): 0.54 ± 0.22 % ID/g
- Testes uptake ([2]; 3 h post-injection): 0.56 ± 0.19 % ID/g
- Thyroid uptake ([2]; 3 h post-injection): 0.72 ± 0.29 % ID/g
- Tumor uptake ([2]; 3 h post-injection): 32.9 ± 10.9 % ID/g
- Tumor:Blood ratio ([2]; 3 h post-injection): 30.4 ± 13.2
- Tumor:Muscle ratio ([2]; 3 h post-injection): 98.6 ± 61.8
- Tumor:kidney ratio ([2]; 3 h post-injection): 1.22 ± 0.53
- Urine uptake ([2]; 3 h post-injection): 275 ± 158 % ID/g
SMILES: O=C([O-])CN1CCN(CC(=O)[O-])CCN(CC(=O)NCCCC[C@H](NC(=O)CNC(=O)CCCc2ccccc2)C(=O)NC[C@H]2CC[C@H](C(=O)N[C@@H](Cc3ccc4ccccc4c3)C(=O)NCCCC[C@H](NC(=O)N[C@@H](CCC(=O)O)C(=O)O)C(=O)O)CC2)CCN(CC(=O)[O-])CC1.[68Ga+3] [^68Ga-HTK03056]

- excretion pathway ([1]; PET/CT images): excreted mainly via the renal pathway
- tumor uptake (qualitative comparison) ([1]; PET/CT images, compounds of FIG. 13): comparable
- Adrenal glands uptake ([2]; 1 h post-injection): 4.91 ± 1.57 % ID/g
- Blood uptake ([2]; 1 h post-injection): 3.93 ± 0.91 % ID/g
- Bone uptake ([2]; 1 h post-injection): 0.92 ± 0.14 % ID/g
- Brain uptake ([2]; 1 h post-injection): 0.09 ± 0.02 % ID/g
- Fat uptake ([2]; 1 h post-injection): 1.57 ± 0.42 % ID/g
- Heart uptake ([2]; 1 h post-injection): 1.25 ± 0.27 % ID/g
- Intestine uptake ([2]; 1 h post-injection): 0.77 ± 0.11 % ID/g
- Kidneys uptake ([2]; 1 h post-injection): 198 ± 49.3 % ID/g
- Lacrimal uptake ([2]; 1 h post-injection): 1.06 ± 0.49 % ID/g
- Liver uptake ([2]; 1 h post-injection): 1.32 ± 0.63 % ID/g
- Lungs uptake ([2]; 1 h post-injection): 3.59 ± 0.69 % ID/g
- Muscle uptake ([2]; 1 h post-injection): 0.63 ± 0.10 % ID/g
- Pancreas uptake ([2]; 1 h post-injection): 0.94 ± 0.18 % ID/g
- Salivary uptake ([2]; 1 h post-injection): 3.27 ± 1.02 % ID/g
- Seminal uptake ([2]; 1 h post-injection): 6.74 ± 10.7 % ID/g
- Spleen uptake ([2]; 1 h post-injection): 7.08 ± 5.08 % ID/g
- Stomach uptake ([2]; 1 h post-injection): 0.31 ± 0.08 % ID/g
- Tail uptake ([2]; 1 h post-injection): 2.18 ± 0.65 % ID/g
- Testes uptake ([2]; 1 h post-injection): 1.02 ± 0.13 % ID/g
- Thyroid uptake ([2]; 1 h post-injection): 1.57 ± 0.32 % ID/g
- Tumor uptake ([2]; 1 h post-injection): 13.9 ± 6.58 % ID/g
- Tumor:Blood ratio ([2]; 1 h post-injection): 3.39 ± 1.01
- Tumor:Muscle ratio ([2]; 1 h post-injection): 21.3 ± 7.50
- Tumor:kidney ratio ([2]; 1 h post-injection): 0.07 ± 0.02
- Urine uptake ([2]; 1 h post-injection): 175 ± 178 % ID/g
SMILES: O=C([O-])CN1CCN(CC(=O)[O-])CCN(CC(=O)NCC2CCC(C(=O)NC(Cc3ccc4ccc5cccc6ccc3c4c56)C(=O)NCCCCC(NC(=O)NC(CCC(=O)O)C(=O)O)C(=O)O)CC2)CCN(CC(=O)[O-])CC1.[68Ga+3] (stereo not drawn) [^68Ga-HTK03029]

- change of tumor uptake from 1 h to 3 h post-injection ([1]; PET/CT images): increases over time
- excretion pathway ([1]; PET/CT images): excreted mainly by the renal pathway
- blood retention (qualitative) [1]: significantly higher blood retention
- Adrenal glands uptake ([2]; 1 h post-injection): 3.28 ± 0.54 % ID/g
- Blood uptake ([2]; 1 h post-injection): 12.1 ± 0.60 % ID/g
- Bone uptake ([2]; 1 h post-injection): 0.72 ± 0.19 % ID/g
- Brain uptake ([2]; 1 h post-injection): 0.15 ± 0.01 % ID/g
- Fat uptake ([2]; 1 h post-injection): 1.37 ± 0.17 % ID/g
- Heart uptake ([2]; 1 h post-injection): 2.76 ± 0.25 % ID/g
- Intestine uptake ([2]; 1 h post-injection): 0.91 ± 0.07 % ID/g
- Kidneys uptake ([2]; 1 h post-injection): 54.7 ± 4.84 % ID/g
- Lacrimal uptake ([2]; 1 h post-injection): 0.24 ± 0.05 % ID/g
- Liver uptake ([2]; 1 h post-injection): 1.77 ± 0.27 % ID/g
- Lungs uptake ([2]; 1 h post-injection): 5.43 ± 0.65 % ID/g
- Muscle uptake ([2]; 1 h post-injection): 0.94 ± 0.02 % ID/g
- Pancreas uptake ([2]; 1 h post-injection): 1.16 ± 0.11 % ID/g
- Salivary uptake ([2]; 1 h post-injection): 2.51 ± 0.18 % ID/g
- Seminal uptake ([2]; 1 h post-injection): 0.71 ± 0.10 % ID/g
- Spleen uptake ([2]; 1 h post-injection): 2.18 ± 0.51 % ID/g
- Stomach uptake ([2]; 1 h post-injection): 0.34 ± 0.04 % ID/g
- Tail uptake ([2]; 1 h post-injection): 3.39 ± 0.59 % ID/g
- Testes uptake ([2]; 1 h post-injection): 1.54 ± 0.18 % ID/g
- Thyroid uptake ([2]; 1 h post-injection): 2.24 ± 0.15 % ID/g
- Tumor uptake ([2]; 1 h post-injection): 17.8 ± 2.89 % ID/g
- Tumor:Blood ratio ([2]; 1 h post-injection): 1.47 ± 0.28
- Tumor:Muscle ratio ([2]; 1 h post-injection): 18.8 ± 2.968
- Tumor:kidney ratio ([2]; 1 h post-injection): 0.32 ± 0.04
- Urine uptake ([2]; 1 h post-injection): 82.9 ± 62.5 % ID/g
- Adrenal glands uptake ([2]; 3 h post-injection): 1.80 ± 0.39 % ID/g
- Blood uptake ([2]; 3 h post-injection): 6.60 ± 0.84 % ID/g
- Bone uptake ([2]; 3 h post-injection): 0.33 ± 0.16 % ID/g
- Brain uptake ([2]; 3 h post-injection): 0.09 ± 0.02 % ID/g
- Fat uptake ([2]; 3 h post-injection): 0.95 ± 0.12 % ID/g
- Heart uptake ([2]; 3 h post-injection): 1.53 ± 0.21 % ID/g
- Intestine uptake ([2]; 3 h post-injection): 0.71 ± 0.07 % ID/g
- Kidneys uptake ([2]; 3 h post-injection): 48.5 ± 10.7 % ID/g
- Lacrimal uptake ([2]; 3 h post-injection): 0.07 ± 0.04 % ID/g
- Liver uptake ([2]; 3 h post-injection): 1.40 ± 0.35 % ID/g
- Lungs uptake ([2]; 3 h post-injection): 3.49 ± 0.64 % ID/g
- Muscle uptake ([2]; 3 h post-injection): 0.57 ± 0.09 % ID/g
- Pancreas uptake ([2]; 3 h post-injection): 0.70 ± 0.11 % ID/g
- Salivary uptake ([2]; 3 h post-injection): 1.39 ± 0.13 % ID/g
- Seminal uptake ([2]; 3 h post-injection): 0.47 ± 0.09 % ID/g
- Spleen uptake ([2]; 3 h post-injection): 1.58 ± 0.37 % ID/g
- Stomach uptake ([2]; 3 h post-injection): 0.27 ± 0.08 % ID/g
- Tail uptake ([2]; 3 h post-injection): 1.50 ± 0.17 % ID/g
- Testes uptake ([2]; 3 h post-injection): 1.30 ± 0.30 % ID/g
- Thyroid uptake ([2]; 3 h post-injection): 1.39 ± 0.16 % ID/g
- Tumor uptake ([2]; 3 h post-injection): 28.2 ± 5.44 % ID/g
- Tumor:Blood ratio ([2]; 3 h post-injection): 4.33 ± 1.06
- Tumor:Muscle ratio ([2]; 3 h post-injection): 50.5 ± 13.5
- Tumor:kidney ratio ([2]; 3 h post-injection): 0.59 ± 0.10
- Urine uptake ([2]; 3 h post-injection): 1.30 ± 47.9 % ID/g
SMILES: COc1ccc(CCCC(=O)NCC(=O)N[C@@H](CCCCNC(=O)CN2CCN(CC(=O)[O-])CCN(CC(=O)[O-])CCN(CC(=O)[O-])CC2)C(=O)NC[C@H]2CC[C@H](C(=O)N[C@@H](Cc3ccc4ccccc4c3)C(=O)NCCCC[C@H](NC(=O)N[C@@H](CCC(=O)O)C(=O)O)C(=O)O)CC2)cc1.[68Ga+3] [^68Ga-HTK03086]
